According to patent US8258099B2, “Pin1-modulating compounds and methods of use thereof” (Max-Planck-Gesellschaft zur Foerderung der Wissenschaften …, priority 2004, dated 2012):
Where two headings read alike, the source gives them in different places. Square brackets hold non-standard residues; d marks the D form. Peptide text beside a SMILES is read from it. * marks the point of attachment. Biotin = O=C1N[C@H]2[C@H](CS[C@H]2CCCCC(=O)*)N1; pT = C[C@@H](OP(=O)(O)O)[C@H](N)C(=O)O; 2Nal = N[C@@H](Cc1ccc2ccccc2c1)C(=O)O; Bta = N[C@@H](Cc1csc2ccccc12)C(=O)O; Pip = O=C(O)[C@@H]1CCCCN1

Key:
hPin1 = molecular target: T1, hPin1 (Homo sapiens, UniProt Q13526); experiment: Protease free PPIase assay, hPin1; format: biochemical
T1 construct: The protease free assay ensures reliable measurement of IC50 values for the full-length hPin1
Experimental: Protein concentrations were determined using the extinction coefficient ε280=21030 M^−1 cm^−1 for hPin1, ε280=6979 M^−1 cm^−1 for the hPin1 PPIase domain, ε280=21030 M^−1 cm^−1 for XlPin1, ε280=8250 M^−1 cm^−1 for hPar14 and ε280=8250 M^−1 cm^−1 for hCyp18. Extinction coefficients were calculated using the program ProtParam Tool at ExPASy (SIB, Switzerland). All measurements were done at 10° C. in 35 mM Hepes buffer (pH 7.8).
The determination of the kinetic constants of the cis/trans isomerization within the protease-free system was performed using fluorescence based measurements (Garcia-Echeverria et al., 1993, Zhang et al., 2002) on a Hitachi F-3010 fluorescence spectrophotometer with H-Abz-Ala-Glu-Pro-Phe-NH-Np (SEQ ID NO: 2) as substrate. The substrate stock solution was 12 mM in anhydrous trifluoroethanol/0.55 M LiCl. Measurements were initiated by addition of the substrate (final concentration 10 μM) to a pre-incubated (15 min) mixture of 8.8 nM hPin1 or 7.1 nM XlPin1 and respective inhibitory peptide of desired concentrations. The excitation wavelength was 320 nm (spectral bandwidth 3 nm) and emission was detected at 420 nm (spectral bandwidth 10 nm).
Data analysis was performed by single-exponential nonlinear regression using the SigmaPlot Scientific Graphing System Version 5.00 (Jandel Corp.). The apparent first order rate constant kobs was computed by nonlinear regression of the progress curve obtained for the respective measurement. The rate constant k0 was determined in the absence of Pin1. The first order rate constants kenz was calculated from the equation kenz=kobs−k0. IC50 and Ki values were determined by fitting the first order rate constants kenz against the concentration of the inhibitory peptide by nonlinear regression according to Schutkowski et al., 1995 or a model for tight binding inhibitors (Morrison, 1969).
The protease free assay ensures reliable measurement of IC50 values for the full-length hPin1.

[1] = Stability against cellular phosphatases and proteases in HeLa cell lysate; format: in vitro ADME; settings: cytoplasmic extracts from HeLa cells, prolonged incubation, MALDI-TOF
Experimental: FIG. 4 depicts the stability of peptide 17 against cellular phosphatases and proteases. Peptide 17 was incubated for 3 hours in HeLa cell lysate in the absence of phosphatase and protease inhibitors. The mixture was then analyzed by capillary electrophoresis (short dashed line). As controls, the untreated peptide 17 (solid line) and its nonphosphorylated derivative (dotted line) were used. The temperature of the capillary thermostating system was kept at 16° C. Separation buffer was 50 mM sodium phosphate, pH 7.0. Signals were detected at 220 nm.
Peptide 17 was incubated with HeLa cell lysate for 3 h and analyzed with capillary electrophoresis using UV detection at 220 nm on a P/ACE MDQ (Beckman Coulter, Palo Alto, Calif.) system. Fused-silica capillaries (Polymicro Technologies) of 40 cm length at an operation voltage of 20 kV were used. As references, untreated peptide 17 and its nonphosphorylated derivative were used. The samples were hydrodynamically injected with 3.45 kPa for 10 s. 50 mM sodium phosphate buffer (pH 7.0) was used as separation buffer. The system temperature was kept at 16° C.
The stability of peptides 15 and 17 in cytoplasmic extracts from HeLa cells was investigated using MALDI-TOF mass spectrometry and capillary electrophoresis, respectively. In the cytosolic incubation mixture, streptavidin sepharose beads served to isolate peptide 15 fragments after prolonged incubation. […] Therefore, phosphopeptides are useless for evaluating Pin1 functions in vivo unless dephosphorylation can be avoided.

[2] = molecular target: T2, GST-hPin1, GST-hPin1 PPIase and GST-hPin1 WW domain (Homo sapiens, UniProt Q13526); experiment: Far western blot related analysis, hPin1 and its single domains; format: binding; settings: 1 μM peptide 15, 50 μM nonphosphorylated derivative
T2 construct: made in house
Experimental: (§1) FIGS. 2A-B depict western blot experiments analyzing the binding of peptide 15 to Pin1. FIG. 2A depicts the binding preferences of the PPIase and WW domain of hPin1 regarding peptide 15. In far western blot related experiments, increasing amounts (from left to right: 1, 5, 10, 52.5, 105 pmol) of GST, GST-hPin1 or its single GST-hPin1 PPIase and GST-hPin1 WW domain were spotted onto nitrocellulose membranes followed by a blocking procedure. The membranes were then incubated with a 1 μM solution of peptide 15 or 50 μM solution of its nonphosphorylated derivative (control). Signals were detected after incubation of the nitrocellulose membranes with horseradish peroxidase-conjugated streptavidin followed by a chemiluminescent reaction using the SuperSignal® substrate. FIG. 2B depicts an analysis of the binding of peptide 15 towards different GST-hPin1 variants. […] Residual PPIase activities of GST-hPin1 and its variants were determined according to Zhou et al., 2000 and/or Yaffe et al., 1997. The PPIase activity of the GST-hPin1 variant Ser16Glu was measured in the protease free PPIase assay.
GST-hPin1 variants, GST-hPin1 PPIase and GST-hPin1 WW domain were prepared as described previously (Ranganathan et al., 1997, Zhou et al., 2000). […] Specific bound peptide 15 was detected by a chemiluminescent reaction using the SuperSignal® substrate (Pierce).

[3] = molecular target: T3, GST-hPin1 variant Ser16Glu (Homo sapiens, UniProt Q13526, S16E); experiment: Far western blot related analysis, GST-hPin1 variants; format: binding
T3 construct: made in house
Experimental: as §1, with “variants. The indicated amounts of peptide 15 were spotted onto nitrocellulose membranes followed by a blocking procedure and incubation with the respective GST-hPin1 variant.” for “variants.”, “assay. […]” for “assay.”

## CC(=O)N[C@@H](CCCCNC(=O)CCCC[C@@H]1SC[C@@H]2NC(=O)N[C@@H]21)C(=O)N[C@@H](C)C(=O)N[C@@H](C)C(=O)N[C@@H](Cc1csc2ccccc12)C(=O)N[C@H](C(=O)N1CCCC[C@H]1C(=O)N[C@@H](Cc1ccc2ccccc2c1)C(=O)N[C@@H](CCC(N)=O)C(N)=O)[C@@H](C)OP(=O)(O)O [Peptide 15, Ac-Lys(N^ε-biotinoyl)-Ala-Ala-Bth-Thr(PO3H2)Pip-Nal-Gln-NH2] (Ac-K(Biotin)AA[Bta][pT][Pip][2Nal]Q-NH2)
hPin1; blockade of PPIase activity of full-length hPin1, protease free assay, 10° C., read-out: IC50
  IC50: 210 nM
hPin1; protease free assay, full-length hPin1, read-out: lowest IC50 value
  IC50: ~200 nM
[1]
  phosphothreonine residue in cytosol: completely dephosphorylated
  sequence integrity in cytosol: sequence integrity was maintained
[2]
  binding to GST-hPin1 and its PPIase and WW domains: binds only to the PPIase domain
[3]
  effect of Ser16Glu substitution in hPin1 on affinity: virtually no effect
